Source: ChEMBL document CHEMBL1155630, “New metabolites from the West Indian sea feather Pseudopterogorgia bipinnata” (J Nat Prod, 2000)
Active and inactive are the calls of the source. The rule behind the calls is not given here.

Tested on: Mycobacterium tuberculosis
Test: Antitubercular activity against Mycobacterium tuberculosis H37Rv at 6.25 ug/mL
Format: functional, organism-based

Row | Compound | Activity
1 | C=C(C)[C@H](CCC1=C[C@H](CC(C)=O)OC1=O)[C@H](O)c1oc(C(C)=O)cc1C | inactive
2 | C=C1CC(=O)/C=C(/C)C[C@@H]2OC(=O)[C@]3(O[C@@H]23)[C@H]2C[C@@H]([C@@]3(C)CO3)[C@H](O)[C@]1(O)O2 | inactive
